Assays:
[1] = OVA sensitization and challenge mouse asthma model; assay type: in vivo, BALB/c mice; settings: OVA-challenged mice
Experimental: Ovalbumin (OVA) sensitization, challenge and treatment with CCL2—OVA sensitization and challenge were effected following a previously described protocol [Flaishon, L., et al., J. Immunol: Cutting edge 168: 3707 (2002)], BALB/c mice (average: 9 mice/group) were sensitized for OVA by intraperitoneal injections with 100 μg of chicken egg ovalbumin (OVA; Sigma-Aldrich, St. Louis, Mo.) mixed with 2 mg of aluminum hydroxide (Pierce, Rockford, Ill.) in 300 μl PBS (control group mice were injected with PSB alone). Injections were given on day 0, 7, and 14. 15 days after initial sensitization, and following, animals were challenged daily for 5 days (days 15-19) by inhaling 4% OVA in PBS, administered by an ultrasonic nebulizer (DeVilbiss, Somersel, Pa.) for 20 minutes, while the control group was challenged with PBS alone.
One of the groups injected and challenged by OVA was additionally injected i.p. with 300 μl PBS from the first day of OVA inhalation (day 15), for 5 days 20 minutes before each inhalation, and another group was additionally injected with murine CCL2 (60 ng CCL2 per animal per day). PBS-treated control group was PBS challenged and PBS injected. On day 18, 2 hours following inhalation, mice were anesthetized by an i.p. injection of 0.2 ml Ketamine/xylazine, and airway hyper-responsiveness (AHR) was determined by calculating the enhanced respiratory pause (Penh), a function of the ratio of peak expiratory flow to peak inspiratory flow and a function of the timing of expiration, measured in a plethysmographic box during expiration. Delta Penh was calculated by subtracting control Penh measurements, before antigen challenge, from the Penh measurements after antigen challenge. […] On day 19 the mice were sacrificed 2 hours after the last inhalation.
Lung histology—Lungs from mice participating in the OVA sensitization and challenge assay were inflated with 1 ml of 10% formalin until distended. Samples for paraffin sectioning were immersed in 10% formalin and fixed for 48 hours. The tissues were then embedded in paraffin and 2-3 micrometer sections were prepared. […]

naïve T cells [2] = experiment: Tracking of cells in vivo: homing of naïve T cells to LN and spleen; set-up: species or system C57BL/6 mice; settings: cells pre-incubated 30 min with CCL2 0.1 ng/ml, injected i.v., 3 hours, vs control
Experimental: Tracking of cells in vivo—T cells pre-incubated for 30 minutes in the presence or absence of CCL2 (0.1 ng/ml RPMI) were washed, and labeled with […] of the fluorescent dye CFDA-SE (Molecular Probes/Invitrogen, Carlsbad, Calif., USA) for 15 minutes at room temperature. Thereafter, an equal amount (0.33×10^7) of CCL2-treated or -untreated cells were injected i.v. into C57BL/6 mice. After 3 hours, LNs and spleens were collected and the FITC-positive population was analyzed by FACS. The proportion of labeled cells recovered in the LN and spleen was determined as previously described [Flaishon, L. R., J. Exp. Med. 192:1381 (2000)] in four different experiments (10 mice in each group).

[3] = tested on: human T cells interacting with ICAM-1 (LFA-1); experiment: Laminar flow adhesion assay on ICAM-1 with co-immobilized CCL21; assay type: cell-based; settings: low dose chemokine pretreatment
Experimental: Laminar flow adhesion assays—Purified VCAM-1 or ICAM-1-Fc (both from R&D Systems, Minneapolis, Minn.) were coated with or without CCL21 (R&D Systems) on polystyrene plates as previously described [Grabovsky et al., J Exp Med. (2000) 192:495-506; Sigal et al., J Immunol. (2000) 165:442-452]. The polystyrene plates were each assembled on the lower wall of the flow chamber as previously described [Feigelson et al., J Biol Chem. (2001) 276:13891-13901]. All flow experiments were conducted at 37° C. Cells were washed with cation-free H/H medium, resuspended in binding medium (H/H medium supplemented with 1 mM CaCl2 and 1 mM MgCl2) and perfused through the flow chamber at low shear stress (0.5-0.75 dyn/cm^2) for 2 minutes. Tethers were defined as transient or rolling if cells attached briefly (<2 seconds) to the substrate and as arrests if immediately arrested and remaining stationary for at least 5 seconds of continuous flow. Frequencies of adhesive categories within differently pretreated cells were determined as a percentage of cells flowing immediately over the substrates, as previously described [Grabovsky et al., supra]. To assess resistance to detachment over time, accumulated cells were subjected to a shear stress of 5 dyn/cm^2 for 5 minutes. At the indicated time points, the number of cells that remained bound was expressed relative to T cell population originally accumulated in the first 2 minute period of the assay. Over 90% of cellular tethers to VCAM-1 or ICAM-1 were blocked by pretreating cells with VLA-4 or LFA-1 blockers respectively.

naïve T cells [4] = experiment: Transwell migration assay, naïve T cells; assay type: cell-based, mice; settings: cells pre-treated 30 min with CCL2 0.1 ng/ml, 3 hours migration
Experimental: Stimulation of T cells—Cell stimulation was performed as previously described [Flaishon et al., J Biol Chem. (2001) 276:46701-46706]. Briefly, 1×10^7 T cells were suspended in 1 ml DMEM cell medium containing 10% (v/v) Fetal Calf Serum (FCS). Next, 0.1 ng/ml CCL2 (CytoLab) was added to each tube and the tubes were immediately placed in 37° C. for 30 minutes. Immediately after stimulation, cells were washed and handled as described hereinbelow.
Transwell migration assay—Chemotaxis was assayed using Transwell chambers as was previously described [Flaishon, L. F., et al., J. Biol. Chem. 276:46701 (2001)]. Naive T cells were suspended for 30 minutes with RPMI medium with or without CCL2 (0.1 ng/ml, Peprotech Inc., Rocky Hill, N.J.), and thereafter placed in the upper chamber of a 24 well Transwell plate, and allowed to migrate towards CXCL12 (SDF-1, 0.1 mg/ml PeproTech, Inc., Rocky Hill, N.J.) or to the secondary lymphoid tissue chemokine (SLC, CCL21, 0.4 mg/ml; PeproTech, Inc., Rocky Hill, N.J.), placed in the lower chamber. Following 3 hours, the number of the migrating cells found in the lower chamber was evaluated by FACS (FACS calibur, BD bioscience). Assay was repeated 3 times and results were analyzed as percent migration, being the number of migrating cells in the lower chamber as a fraction of the input cells in the upper chamber.

## CCL2: mammalian (e.g., human) CCL2 protein, GenBank NM_002982 / NP_002973; murine CCL2 used in the asthma model
[1]; CCL2 60 ng per day i.p., FIG. 8e
  peribronchial and perivascular inflammatory infiltrate (inflammatory score 1-4): significantly reduced
[1]; CCL2 60 ng per day i.p., FIG. 8d
  histological changes in the lungs: barely detectable
[1]; murine CCL2 60 ng per animal per day i.p. for 5 days, FIG. 8a
  airway responsiveness (delta Penh) to antigen challenge: no airway hyperactivity was observed
naïve T cells [2]; FIG. 4a
  reduction in homing of naïve T cells into the LN: 50%
naïve T cells [2]; FIG. 4b
  migration of T cells to the spleen: no difference
[3]; high shear stress 5 dyn/cm^2, FIG. 6b
  post arrest adhesion strengthening on ICAM-1 (resistance to detachment): failed to develop adhesion strengthening
[3]; shear stress 0.5 dyn/cm^2, FIG. 6a
  LFA-1 activation by surface bound CCL21 (arrest on ICAM-1): did not interfere
naïve T cells [4]; FIG. 2a
  inhibition of migration of naïve T cells towards CXCL12: 40-50%
naïve T cells [4]; FIG. 2b
  inhibition of migration of naïve T cells towards CCL21: 40-50%

From US7919077B2, “Pharmaceutical compositions comprising CCL2 and use of same for the treatment of inflammation” (Yeda Research and Development Co. Ltd., priority 2006, dated 2011)
